From PubChem BioAssay AID606 (Columbia University Molecular Screening Center, 2007)
Activity calls are given as the source filed them.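 The calls were made as follows: active = IC50 under 40 µM in the dose-response test; inactive = IC50 of 40 µM or more, or never dose-tested.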

Biological target: Tyrosine-protein phosphatase non-receptor type 22 (Homo sapiens) (UniProt Q9Y2R2)
Assay: LYP phosphatase inhibitors, primary screen, biochemical, DiFMUP fluorescence, recombinant catalytic domain, 10 µM (AID 606)

Tyrosine-protein phosphatase non-receptor type 22 (Homo sapiens), sequence (Q9Y2R2 whole entry, looked up, the tested form may be a part): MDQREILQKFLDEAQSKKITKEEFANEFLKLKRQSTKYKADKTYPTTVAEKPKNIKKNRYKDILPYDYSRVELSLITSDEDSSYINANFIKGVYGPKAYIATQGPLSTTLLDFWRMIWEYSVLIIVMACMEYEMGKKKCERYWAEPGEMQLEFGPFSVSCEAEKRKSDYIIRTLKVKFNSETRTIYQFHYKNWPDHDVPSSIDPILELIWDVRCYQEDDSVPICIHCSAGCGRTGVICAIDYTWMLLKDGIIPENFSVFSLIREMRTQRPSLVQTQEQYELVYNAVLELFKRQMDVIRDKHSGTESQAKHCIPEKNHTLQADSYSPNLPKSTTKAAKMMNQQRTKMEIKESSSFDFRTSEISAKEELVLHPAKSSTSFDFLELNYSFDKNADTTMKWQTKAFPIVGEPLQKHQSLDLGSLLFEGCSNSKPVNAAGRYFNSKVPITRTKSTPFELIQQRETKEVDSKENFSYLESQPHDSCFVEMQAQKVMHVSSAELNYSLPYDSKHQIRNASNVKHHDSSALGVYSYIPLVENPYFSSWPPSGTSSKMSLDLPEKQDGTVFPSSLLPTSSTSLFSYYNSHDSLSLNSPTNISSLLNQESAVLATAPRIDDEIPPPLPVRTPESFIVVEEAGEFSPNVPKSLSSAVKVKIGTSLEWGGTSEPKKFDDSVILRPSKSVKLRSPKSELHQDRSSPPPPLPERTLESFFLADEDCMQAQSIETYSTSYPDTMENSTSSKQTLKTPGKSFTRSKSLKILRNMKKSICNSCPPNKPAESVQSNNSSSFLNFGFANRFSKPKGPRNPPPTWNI

IC50: > 40 µM (inactive)
Compound: Oc1ccc2ccccc2c1C=NC12CN3CCN(CN(C3)C1)C2
